Assay results from patent EP2161278B1, “Single-chain coiled coil scaffold” (Complix N.V., priority 2008, dated 2010).
Peptide text beside a SMILES is read from it.

Test: Thermal denaturation of trimeric coiled coil peptides by CD thermal scan (signal at 222 nm versus temperature, curve fitting)
Assay type: physicochemical
Settings: core mutants at positions 3a and 3d of the reference peptide with glutamine at 2a; Figure 9
Procedure: The said synthesized peptide was dissolved at a concentration of 292 microM in 20 mM phosphate buffer (PBS), 150 mM NaCl, pH 7.2. The CD spectra were measured between […], at 5 and 90 degrees Celsius (Figure 3). The spectrum at 5 degrees Celsius was indicative of a high alpha-helical secondary structure content, in agreement with the expectation that all heptad regions, but not all of the flanking residues, would assemble as alpha-helical coiled coils.
To analyse whether the temperature-induced transition between helical and nonhelical states was reversible, a forward (up) and backward (down) thermal scan was performed on the same sample, by recording the CD signal at […] as a function of temperature at a scanning rate of about 1 degree Celsius per minute (Figure 4). It was observed that the up and down scans almost perfectly coincided, thereby confirming the quantitative unfolding and refolding of the peptides in the sample.
It was further analyzed whether the thermal unfolding curve of Figure 4 conformed to the thermodynamic equations describing the equilibrium folding/unfolding reaction between three molecules free (monomeric) peptide and one entity of folded (trimeric) complex. This reaction is generally written as 3 peptide <=> peptide3 wherein "<=>" refers to a chemical equilibrium, "peptide" to a monomeric peptide in solution and "peptide3" to a trimeric entity in the folded (assembled, associated) state. This thermal unfolding curve was fitted to the theoretic equations: θ(T) = θM (T) + (θT(T)-θM(T))(1+root(F(-(1)/(2)+sqrt((1)/(4) + (F)/(27))), 3)+root(F(-(1)/(2)-sqrt((1)/(4) + (F)/(27))), 3)) [formula] wherein F = (exp(-(ΔHt)/(RT)(1-T/T1)-(ΔCp)/(RT)(T-Tt-Tln(T/Tt))))/(4) [formula] and T≡ the temperature, in degrees Kelvin, of the sample θ(T)≡ the CD-signal [theta]222 nm, in deg cm^2 dmol^-1, as a function of T θM(T)≡ the CD-signal for 100% free (monomeric) peptide as a function of T θT(T) ≡ the CD-signal for 100% associated (trimeric) peptide as a function of T Tt ≡ the transition temperature, where 50% of the total peptide concentration is associated ΔHt ≡ the enthalpy difference, in kJ per mole peptide, between mono- and trimeric states ΔCp ≡ the heat capacity difference, in J mol^-1 K^-1, between mono- and trimeric states R ≡ the ideal (universal) gas constant ≡ 8.31 J mol^-1 K^-1
The global CD signal was somewhat lower than expected, which could be due to an instrumental deviation, an error in the concentration determination, a lower purity, or a lower than expected alpha-helical content. Nevertheless, the main goal of this experiment was to examine the effect of the glutamine-to-isoleucine mutant on the stability of the complex. […] The estimated transition temperature was around 97 degrees Celsius, although the latter was difficult to determine because of incompleteness of the transition.
All ten peptides were analyzed by thermal CD scanning as in Examples 3 and 4. Fitting of the thermal denaturation curves, as described in Example 3, gave the corresponding transition temperatures shown in Figure 9. […]

effect of core substitution on stability (transition temperature) compared to the reference peptide comprising isoleucine at positions 3a and 3d	SMILES
disruptive	CC[C@H](C)[C@H](NC(=O)[C@H](C)NC(=O)[C@H](C)NC(=O)[C@H](CCC(N)=O)NC(=O)[C@H](CCC(N)=O)NC(=O)[C@H](CCCCN)NC(=O)[C@H](CCC(N)=O)NC(=O)[C@@H](NC(=O)[C@H](CCC(=O)O)NC(=O)[C@H](CCC(=O)O)NC(=O)[C@@H](NC(=O)[C@H](CO)NC(=O)[C@H](CCSC)NC(C)=O)[C@@H](C)CC)[C@@H](C)CC)C(=O)N[C@@H](CCC(N)=O)C(=O)N[C@@H](CCCCN)C(=O)N[C@@H](CCC(N)=O)C(=O)N[C@@H](C)C(=O)N[C@@H](C)C(=O)N[C@@H](C)C(=O)N[C@H](C(=O)N[C@@H](CCC(N)=O)C(=O)N[C@@H](CCCCN)C(=O)N[C@@H](CCC(N)=O)C(=O)N[C@H](C(=O)N[C@@H](Cc1ccc(O)cc1)C(=O)N[C@@H](CCCNC(=N)N)C(=O)N[C@@H](CCSC)C(=O)N[C@H](C(=O)N1CCC[C@H]1C(N)=O)[C@@H](C)O)[C@@H](C)CC)[C@@H](C)CC [3aA] (Ac-MSIEEIQKQQAAIQKQAAAIQKQIYRMTP-NH2)
slightly stabilizing effect	CC[C@H](C)[C@H](NC(=O)[C@H](C)NC(=O)[C@H](C)NC(=O)[C@H](CCC(N)=O)NC(=O)[C@H](CCC(N)=O)NC(=O)[C@H](CCCCN)NC(=O)[C@H](CCC(N)=O)NC(=O)[C@@H](NC(=O)[C@H](CCC(=O)O)NC(=O)[C@H](CCC(=O)O)NC(=O)[C@@H](NC(=O)[C@H](CO)NC(=O)[C@H](CCSC)NC(C)=O)[C@@H](C)CC)[C@@H](C)CC)C(=O)N[C@@H](CCC(N)=O)C(=O)N[C@@H](CCCCN)C(=O)N[C@@H](CCC(N)=O)C(=O)N[C@@H](CC(C)C)C(=O)N[C@@H](C)C(=O)N[C@@H](C)C(=O)N[C@H](C(=O)N[C@@H](CCC(N)=O)C(=O)N[C@@H](CCCCN)C(=O)N[C@@H](CCC(N)=O)C(=O)N[C@H](C(=O)N[C@@H](Cc1ccc(O)cc1)C(=O)N[C@@H](CCCNC(=N)N)C(=O)N[C@@H](CCSC)C(=O)N[C@H](C(=O)N1CCC[C@H]1C(N)=O)[C@@H](C)O)[C@@H](C)CC)[C@@H](C)CC [3aL] (Ac-MSIEEIQKQQAAIQKQLAAIQKQIYRMTP-NH2)
relatively strong	CC[C@H](C)[C@H](NC(=O)[C@H](C)NC(=O)[C@H](C)NC(=O)[C@H](CCC(N)=O)NC(=O)[C@H](CCC(N)=O)NC(=O)[C@H](CCCCN)NC(=O)[C@H](CCC(N)=O)NC(=O)[C@@H](NC(=O)[C@H](CCC(=O)O)NC(=O)[C@H](CCC(=O)O)NC(=O)[C@@H](NC(=O)[C@H](CO)NC(=O)[C@H](CCSC)NC(C)=O)[C@@H](C)CC)[C@@H](C)CC)C(=O)N[C@@H](CCC(N)=O)C(=O)N[C@@H](CCCCN)C(=O)N[C@@H](CCC(N)=O)C(=O)N[C@@H](CCC(N)=O)C(=O)N[C@@H](C)C(=O)N[C@@H](C)C(=O)N[C@H](C(=O)N[C@@H](CCC(N)=O)C(=O)N[C@@H](CCCCN)C(=O)N[C@@H](CCC(N)=O)C(=O)N[C@H](C(=O)N[C@@H](Cc1ccc(O)cc1)C(=O)N[C@@H](CCCNC(=N)N)C(=O)N[C@@H](CCSC)C(=O)N[C@H](C(=O)N1CCC[C@H]1C(N)=O)[C@@H](C)O)[C@@H](C)CC)[C@@H](C)CC [3aQ] (Ac-MSIEEIQKQQAAIQKQQAAIQKQIYRMTP-NH2)
disruptive	CC[C@H](C)[C@H](NC(=O)[C@H](C)NC(=O)[C@H](C)NC(=O)[C@H](CCC(N)=O)NC(=O)[C@H](CCC(N)=O)NC(=O)[C@H](CCCCN)NC(=O)[C@H](CCC(N)=O)NC(=O)[C@@H](NC(=O)[C@H](CCC(=O)O)NC(=O)[C@H](CCC(=O)O)NC(=O)[C@@H](NC(=O)[C@H](CO)NC(=O)[C@H](CCSC)NC(C)=O)[C@@H](C)CC)[C@@H](C)CC)C(=O)N[C@@H](CCC(N)=O)C(=O)N[C@@H](CCCCN)C(=O)N[C@@H](CCC(N)=O)C(=O)N[C@@H](CO)C(=O)N[C@@H](C)C(=O)N[C@@H](C)C(=O)N[C@H](C(=O)N[C@@H](CCC(N)=O)C(=O)N[C@@H](CCCCN)C(=O)N[C@@H](CCC(N)=O)C(=O)N[C@H](C(=O)N[C@@H](Cc1ccc(O)cc1)C(=O)N[C@@H](CCCNC(=N)N)C(=O)N[C@@H](CCSC)C(=O)N[C@H](C(=O)N1CCC[C@H]1C(N)=O)[C@@H](C)O)[C@@H](C)CC)[C@@H](C)CC [3aS] (Ac-MSIEEIQKQQAAIQKQSAAIQKQIYRMTP-NH2)
moderately	CC[C@H](C)[C@H](NC(=O)[C@H](C)NC(=O)[C@H](C)NC(=O)[C@H](CCC(N)=O)NC(=O)[C@H](CCC(N)=O)NC(=O)[C@H](CCCCN)NC(=O)[C@H](CCC(N)=O)NC(=O)[C@@H](NC(=O)[C@H](CCC(=O)O)NC(=O)[C@H](CCC(=O)O)NC(=O)[C@@H](NC(=O)[C@H](CO)NC(=O)[C@H](CCSC)NC(C)=O)[C@@H](C)CC)[C@@H](C)CC)C(=O)N[C@@H](CCC(N)=O)C(=O)N[C@@H](CCCCN)C(=O)N[C@@H](CCC(N)=O)C(=O)N[C@H](C(=O)N[C@@H](C)C(=O)N[C@@H](C)C(=O)N[C@H](C(=O)N[C@@H](CCC(N)=O)C(=O)N[C@@H](CCCCN)C(=O)N[C@@H](CCC(N)=O)C(=O)N[C@H](C(=O)N[C@@H](Cc1ccc(O)cc1)C(=O)N[C@@H](CCCNC(=N)N)C(=O)N[C@@H](CCSC)C(=O)N[C@H](C(=O)N1CCC[C@H]1C(N)=O)[C@@H](C)O)[C@@H](C)CC)[C@@H](C)CC)C(C)C [3aV] (Ac-MSIEEIQKQQAAIQKQVAAIQKQIYRMTP-NH2)
relatively strong	CC[C@H](C)[C@H](NC(=O)[C@H](C)NC(=O)[C@H](C)NC(=O)[C@H](CCC(N)=O)NC(=O)[C@H](CCC(N)=O)NC(=O)[C@H](CCCCN)NC(=O)[C@H](CCC(N)=O)NC(=O)[C@@H](NC(=O)[C@H](CCC(=O)O)NC(=O)[C@H](CCC(=O)O)NC(=O)[C@@H](NC(=O)[C@H](CO)NC(=O)[C@H](CCSC)NC(C)=O)[C@@H](C)CC)[C@@H](C)CC)C(=O)N[C@@H](CCC(N)=O)C(=O)N[C@@H](CCCCN)C(=O)N[C@@H](CCC(N)=O)C(=O)N[C@H](C(=O)N[C@@H](C)C(=O)N[C@@H](C)C(=O)N[C@@H](C)C(=O)N[C@@H](CCC(N)=O)C(=O)N[C@@H](CCCCN)C(=O)N[C@@H](CCC(N)=O)C(=O)N[C@H](C(=O)N[C@@H](Cc1ccc(O)cc1)C(=O)N[C@@H](CCCNC(=N)N)C(=O)N[C@@H](CCSC)C(=O)N[C@H](C(=O)N1CCC[C@H]1C(N)=O)[C@@H](C)O)[C@@H](C)CC)[C@@H](C)CC [3dA] (Ac-MSIEEIQKQQAAIQKQIAAAQKQIYRMTP-NH2)
slightly stabilizing effect	CC[C@H](C)[C@H](NC(=O)[C@H](C)NC(=O)[C@H](C)NC(=O)[C@H](CCC(N)=O)NC(=O)[C@H](CCC(N)=O)NC(=O)[C@H](CCCCN)NC(=O)[C@H](CCC(N)=O)NC(=O)[C@@H](NC(=O)[C@H](CCC(=O)O)NC(=O)[C@H](CCC(=O)O)NC(=O)[C@@H](NC(=O)[C@H](CO)NC(=O)[C@H](CCSC)NC(C)=O)[C@@H](C)CC)[C@@H](C)CC)C(=O)N[C@@H](CCC(N)=O)C(=O)N[C@@H](CCCCN)C(=O)N[C@@H](CCC(N)=O)C(=O)N[C@H](C(=O)N[C@@H](C)C(=O)N[C@@H](C)C(=O)N[C@@H](CC(C)C)C(=O)N[C@@H](CCC(N)=O)C(=O)N[C@@H](CCCCN)C(=O)N[C@@H](CCC(N)=O)C(=O)N[C@H](C(=O)N[C@@H](Cc1ccc(O)cc1)C(=O)N[C@@H](CCCNC(=N)N)C(=O)N[C@@H](CCSC)C(=O)N[C@H](C(=O)N1CCC[C@H]1C(N)=O)[C@@H](C)O)[C@@H](C)CC)[C@@H](C)CC [3dL] (Ac-MSIEEIQKQQAAIQKQIAALQKQIYRMTP-NH2)
